Experimental data taken from US8623859B2, “Bradykinin B1 antagonists” (Evotec AG, priority 2008, dated 2014).

biological target: T1, human B1 (Homo sapiens, UniProt P46663); assay: Calcium flux assay for Bradykinin B1 antagonist, CHO-K1 cell line expressing human B1; assay type: cell-based; conditions: CHO-K1 cells expressing human B1, agonist Lys-(Des-Arg)-Bradykinin, read-out: Potency (IC50 value against human B1)
T1 construct: host or cells: CHO-K1
T1 sequence (P46663 1-353): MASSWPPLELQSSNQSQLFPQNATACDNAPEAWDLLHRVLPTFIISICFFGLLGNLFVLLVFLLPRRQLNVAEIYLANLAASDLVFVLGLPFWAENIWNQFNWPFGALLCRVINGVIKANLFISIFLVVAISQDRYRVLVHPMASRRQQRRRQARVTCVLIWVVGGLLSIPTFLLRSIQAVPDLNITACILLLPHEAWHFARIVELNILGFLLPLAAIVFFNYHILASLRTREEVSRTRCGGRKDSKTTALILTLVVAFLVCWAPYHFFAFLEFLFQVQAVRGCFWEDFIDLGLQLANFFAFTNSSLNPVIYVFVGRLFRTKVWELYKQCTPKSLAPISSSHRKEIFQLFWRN
Description: Calcium Flux Assay for Bradykinin B1 Antagonist
The potency to inhibit the Bradykinin B1 receptors was determined for the compounds of this invention in a cell-based fluorescent calcium-mobilization assay. The assay measures the ability of test compounds to inhibit Bradykinin B1 receptor agonist-induced increase of intracellular free Ca^2+ in cell lines expressing B1.
The change of the intracellular Ca^2+ concentration is monitored with a specifically designed fluorescent plate reader (FlexStation, Molecular Devices).
CHO-K1 cell line expressing human B1 was purchased from Euroscreen (Gosselies, Belgium, with reference name hBl-D1). CHO-K1 cell lines expressing rat B1 or mouse B1 were established in the following way: the full-length receptor-coding cDNA clones were obtained by PCR performed on rat or mouse brain cDNAs. The respective cDNAs were cloned into an expression vector under the control of a CMV promotor. The resultant plasmids were introduced into CHO-K1 cells with liposome technology (FuGENE; Roche Diagnostics, Basel), according to the standard protocols described by the manufacturer. Cell lines expressing a Bradykinin receptor were selected in the culture medium containing 400 μg/ml G418 (Sigma). From selected cell populations, monoclonal cell lines were isolated by single cell cloning. The expression of Bradykinin receptors was confirmed by immunofluorescence staining of the cells, as well as by calcium flux assay.
Human B1-expressing cells were grown in Nutrient Mixture Ham's F12 (Sigma) containing 10% Foetal bovine serum (Sigma) and 400 μg/ml G418 (Sigma), 5 μg/ml puromycim (Sigma); Rat B1 and mouse B1-expressing cells were grown in DMEM/F12 medium (Sigma) containing 10% Foetal bovine serum (Sigma) and 400 μg/ml G418 (Sigma).
For the calcium flux assay, 80% confluent cells were detached from the culture vessels with Versene (Gibco; for human B1 cell-line) or with 1× trypsin-EDTA solution (Sigma; for rodent B1 cell-line), and seeded into 384-well plates (Cell binding Surface; Corning, N.Y.; #3683) at a density of 15,000 cells per well for human B1 or at a density of 20,000 cells per well for rodent B1. Cells were seeded in a volume of 50 μl in medium without antibiotics and incubated overnight in a humidified atmosphere with 5% CO2 at 37° C. The following day, the medium was replaced with 20 μl of 5 μM Fluo-4AM dye (Molecular Probes) in assay buffer (2.5 mM probenicid, 1 mg/ml pluronic acid, 0.1% BSA, 135 mM NaCl, 5 mM KCl, 1.8 mM CaCl, 1 mM MgCl2, 10 mM HEPES, 5.6 mM glucose, 0.05% gelatine, pH 7.4). The calcium indicator loaded cells were incubated at 37° C. for 2 hrs. Extracellular dye was then removed and each well was filled with 45 μl of assay buffer. Cell plates were kept in dark until used. Test compounds were assayed at 8 concentrations in triplicate. Serial 10-fold dilutions in 100% DMSO were made at a 100-times higher concentration than the final concentration, and then diluted 1:10 in assay buffer. 5 μl of each diluted compound was added to the well of cell plates (yielding final concentration with 1% DMSO), and incubated for 30 min at 25° C. before the addition of B1 agonist on the FlexStation.
The addition of agonist 20 μl per well to the assay plate was carried out on the FlexStation while continuously monitoring Ca^2+-dependent fluorescence at 538 nm. The integrated values, normalized with the background fluorescence, were plotted against the logarithm of the antagonist concentrations.

SMILES | IC50
COc1cc(C)c(S(=O)(=O)N(C)Cc2cc(C(=O)N3CCN(C4CCN(C)CC4)CC3)co2)c(C)c1 [Ex 1, 4-Methoxy-N,2,6-trimethyl-N-[(4-{[4-(1-methylpiperidin-4-yl)piperazin-1-yl]carbonyl}furan-2-yl)methyl]benzenesulfonamide] | 100 to 1000 nM
COc1cc(C)c(S(=O)(=O)N(C)Cc2cc(C(=O)N(C)Cc3ccc(-n4ccnc4)cc3)co2)c(C)c1 [Ex 2, N-[4-(1H-imidazol-1-yl)benzyl]-5-({[(4-methoxy-2,6-dimethylphenyl)sulfonyl](methyl)amino}methyl)-N-methylfuran-3-carboxamide] | 100 to 1000 nM
COc1cc(C)c(S(=O)(=O)N(C)Cc2cc(C(=O)NC3CC(C)(C)N(C)C(C)(C)C3)co2)c(C)c1 [Ex 3, 5-({[(4-methoxy-2,6-dimethylphenyl)sulfonyl](methyl)amino}methyl)-N-(1,2,2,6,6-pentamethylpiperidin-4-yl)furan-3-carboxamide] | 100 to 1000 nM
COc1cc(C)c(S(=O)(=O)N(C)Cc2cc(C(=O)NCCc3ccc(C4=NCCN4)cc3)co2)c(C)c1 [Ex 4, N-{2-[4-(4,5-dihydro-1H-imidazol-2-yl)phenyl]ethyl}-5-({[(4-methoxy-2,6-dimethylphenyl)sulfonyl](methyl)amino}methyl)furan-3-carboxamide] | < 10 nM
COc1cc(C)c(S(=O)(=O)N(C)Cc2cc(C(=O)N(C)CCc3ccc(C4=NCCN4)cc3)co2)c(C)c1 [Ex 5, N-{2-[4-(4,5-dihydro-1H-imidazol-2-yl)phenyl]ethyl}-5-({[(4-methoxy-2,6-dimethylphenyl)sulfonyl](methyl)amino}methyl)-N-methylfuran-3-carboxamide] | < 10 nM
COc1cc(C)c(S(=O)(=O)N(C)Cc2cc(C(=O)NCc3ccc(C4=NCCN4)cc3)co2)c(C)c1 [Ex 6, N-[4-(4,5-dihydro-1H-imidazol-2-yl)benzyl]-5-({[(4-methoxy-2,6-dimethylphenyl)sulfonyl](methyl)amino}methyl)furan-3-carboxamide] | 10 to 100 nM
COc1cc(C)c(S(=O)(=O)N(C)Cc2cc(C(=O)NCCc3ccc(C4=NC(C)CN4)cc3)co2)c(C)c1 (stereo not drawn) [Ex 7, 5-({[(4-methoxy-2,6-dimethylphenyl)sulfonyl](methyl)amino}methyl)-N-{2-[4-(4-methyl-4,5-dihydro-1H-imidazol-2-yl)phenyl]ethyl}furan-3-carboxamide] | < 10 nM
COc1cc(C)c(S(=O)(=O)N(C)Cc2cc(C(=O)N(C)Cc3cccc(CN4CCCC4)c3)co2)c(C)c1 [Ex 8, 5-({[(4-methoxy-2,6-dimethylphenyl)sulfonyl](methyl)amino}methyl)-N-methyl-N-[3-(pyrrolidin-1-ylmethyl)benzyl]furan-3-carboxamide] | 10 to 100 nM
COc1cc(C)c(S(=O)(=O)N(C)Cc2cc(C(=O)N(C)Cc3ccc(CN4CCCC4)cc3)co2)c(C)c1 [Ex 9, 5-({[(4-methoxy-2,6-dimethylphenyl)sulfonyl](methyl)amino}methyl)-N-methyl-N-[4-(pyrrolidin-1-ylmethyl)benzyl]furan-3-carboxamide] | 10 to 100 nM
COc1cc(C)c(S(=O)(=O)N(C)Cc2cc(C(=O)N(C)Cc3ccc(C4=NCCCN4)cc3)co2)c(C)c1 [Ex 10, 5-({[(4-methoxy-2,6-dimethylphenyl)sulfonyl](methyl)amino}methyl)-N-methyl-N-[4-(1,4,5,6-tetrahydropyrimidin-2-yl)benzyl]furan-3-carboxamide] | 10 to 100 nM
COc1cc(C)c(S(=O)(=O)N(C)Cc2cc(C(=O)NCc3cccc(CN4CCCC4)c3)co2)c(C)c1 [Ex 11, 5-({[(4-methoxy-2,6-dimethylphenyl)sulfonyl](methyl)amino}methyl)-N-[3-(pyrrolidin-1-ylmethyl)benzyl]furan-3-carboxamide] | 100 to 1000 nM
COc1cc(C)c(S(=O)(=O)N(C)Cc2cc(C(=O)NCc3ccc(Nc4cccc[n+]4C)cc3)co2)c(C)c1 [Ex 12, 2-({4-[({[5-({[(4-methoxy-2,6-dimethylphenyl)sulfonyl](methyl)amino}methyl)furan-3-yl]carbonyl}amino)methyl]phenyl}amino)-1-methylpyridinium iodide] | 100 to 1000 nM
